Drawing on PubChem BioAssay (NCI), this text covers TGI and GI50 for ten compounds.

Where “and” joins values, the source holds several entries; their conditions need not be identical. Identical values can stand only once.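 Dose response: 5 concentrations. Exposure: 48 h. Format: 96-well plates. Endpoint: linear interpolation; highest concentration if not reached. GI50 marks 50% less growth. The concentration for full growth arrest is given as TGI.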

Test systems include LXFL 529 NSCLC; DLD-1 colon; RXF-631 renal; SN12K1 renal; DMS 114 small cell lung; P388/ADR leukemia; P388 leukemia; HOP-18 NSCLC.
Experiment in all cases: NCI tumour cell line growth inhibition, 48 h

Consider `CC(=O)NNc1nc(C)c(C(/C=C/c2ccc(Cl)cc2)=N\N=C(N)N)s1`, for which the TGI in the assay with LXFL 529 NSCLC, in the assay with DLD-1 colon and in the assay with RXF-631 renal was over 100 µM in each case.
As to `CC[C@@]1(O)C(=O)OCc2c1cc1n(c2=O)Cc2cc3c(CN(C)C)c(O)ccc3nc2-1`, the TGI in the assay on SN12K1 renal is 1.19 µM; in the assay on DMS 114 small cell lung, 0.691 µM and 0.162 µM; in the assay with P388/ADR leukemia, 2.77 µM; in the assay on P388 leukemia, 2.66 µM; with HOP-18 NSCLC, 89 µM; with RXF-631 renal it was 30.1 µM. In addition, the figures for the GI50 in the assay on DMS 114 small cell lung and in the assay with HOP-18 NSCLC were under 0.0351 µM and 0.132 µM, respectively.
Take `O=C(CSc1nnc(Cc2ccccc2)o1)Nc1ccc(Cl)cc1[N+](=O)[O-]`: the TGI amounted to 40.8 µM in the assay with LXFL 529 NSCLC and 28.3 µM in the assay on HOP-18 NSCLC.
For `O=C1C[C@@H]2[C@@H](CCC23CCCC3)N1`, the TGI in the assay on LXFL 529 NSCLC, with DLD-1 colon and with HOP-18 NSCLC was over 100 µM throughout.
For `O=C1N=CN=C2C=CC(Cl)=C(I)C12` (stereo not drawn), the TGI in the assay on LXFL 529 NSCLC, in the assay on DLD-1 colon and with DMS 114 small cell lung was over 100 µM in each case.
In the case of `CC(C)COC(=O)c1ccc(N=Cc2ccc(C=Nc3ccc(C(=O)OCC(C)C)cc3)cc2)cc1`, the TGI with LXFL 529 NSCLC, with DLD-1 colon and in the assay on RXF-631 renal was over 100 µM in each case.
On to `O=C1C(Cl)=C(N2CCN(CCOCCO)CC2)C(=O)c2ccccc21`, for which the results for the TGI in the assay on LXFL 529 NSCLC and in the assay with HOP-18 NSCLC were 3.37 µM and 29.9 µM, respectively.
`COc1ccc(Cc2cc(OC)c(OC)c(OC)c2)cc1`: the TGI in the assay on LXFL 529 NSCLC and with DLD-1 colon was over 100 µM each time.
Take `CC1OC(OC2C(OC(=O)[C@]34CCC(C)(C)CC3C3=CCC5[C@@]6(C)C[C@H](O)[C@H](OC7OC(COC8OC(CO)C(O)C(O)C8O)C(O)C(O)C7O)[C@@](C)(C(=O)O)C6CC[C@@]5(C)C3(C)CC4)OCC(O)C2O)C(O)C(O)C1OC1OCC(O)C(O)C1O` (stereo partly drawn): the TGI in the assay on DLD-1 colon, in the assay on DMS 114 small cell lung and in the assay on HOP-18 NSCLC was over 100 µM in each case.
For `Cc1cc(N(CCC#N)CCC#N)ccc1/C=C1N=C(/C=C/c2ccccc2)N(c2ccc(S(N)(=O)=O)cc2)C\1=O`, the TGI in the assay on LXFL 529 NSCLC, with DLD-1 colon, in the assay on DMS 114 small cell lung and in the assay with RXF-631 renal was over 100 µM each time.
